Toxic doses and inconclusive results are not listed. No stated cut-off is given here; in the data, active means T/C of 150% or more; inactive means T/C below 125%.
Tested on: L1210 leukemia ip in BDF1 mice, survival T/C
Assay: NCI In Vivo Anticancer Drug Screen. Data for tumor model L1210 Leukemia (intraperitoneal) in B6D2F1 (BDF1) mice
Conditions: endpoint: mean survival time, higher = longer survival
Procedure, shortened: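 Tumor was transplanted into mice, which were then dosed with test compound or vehicle alone. Survival was recorded for each group, and the treated figure was expressed relative to the control figure.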

[1] = dose: 100.0 mg/kg/injection, schedule: Q04DX003 (ip), vehicle: Klucel (hydroxypropylcellulose) (HPC)

Measured: T/C

COc1cc2c(cc1OC)C(=O)N(C)CC2
inactive: dose: 100.0 mg/kg/injection, schedule: Q01DX009 (ip), vehicle: water 95 % of control | dose: 100.0 mg/kg/injection, schedule: Q04DX003 (ip), vehicle: water 97 % of control | dose: 200.0 mg/kg/injection, schedule: Q01DX009 (ip), vehicle: water 102 % of control | dose: 200.0 mg/kg/injection, schedule: Q04DX003 (ip), vehicle: water 97 % of control | dose: 400.0 mg/kg/injection, schedule: Q04DX003 (ip), vehicle: water 100 % of control

COc1cc2c(cc1NC(C)=O)C(=O)CCCC2
inactive: dose: 50.0 mg/kg/injection, schedule: Q01DX009 (ip), vehicle: other 92 % of control | dose: 100.0 mg/kg/injection, schedule: Q01DX009 (ip), vehicle: other 95 % of control | dose: 200.0 mg/kg/injection, schedule: Q01DX009 (ip), vehicle: other 92 % of control

CC1NC(=O)NC1CCCCCC(=O)O (configuration not stated)
inactive: dose: 50.0 mg/kg/injection, schedule: Q01DX001 (ip), vehicle: Klucel (hydroxypropylcellulose) (HPC) 98 % of control | dose: 100.0 mg/kg/injection, schedule: Q01DX001 (ip), vehicle: Klucel (hydroxypropylcellulose) (HPC) 98 % of control | dose: 100.0 mg/kg/injection, schedule: Q01DX001 (ip), vehicle: carboxymethylcellulose (CMC) 97 % of control | dose: 200.0 mg/kg/injection, schedule: Q01DX001 (ip), vehicle: Klucel (hydroxypropylcellulose) (HPC) 96 % of control | dose: 200.0 mg/kg/injection, schedule: Q01DX001 (ip), vehicle: carboxymethylcellulose (CMC) 98 % of control | dose: 400.0 mg/kg/injection, schedule: Q01DX001 (ip), vehicle: carboxymethylcellulose (CMC) 97 % of control

COc1cc(CC(=O)O)c(Br)cc1C
inactive: dose: 100.0 mg/kg/injection, schedule: Q01DX009 (ip), vehicle: saline 97 % of control | dose: 100.0 mg/kg/injection, schedule: Q04DX003 (ip), vehicle: saline with Tween-80 101 % of control | dose: 200.0 mg/kg/injection, schedule: Q01DX009 (ip), vehicle: saline 109 % of control | dose: 200.0 mg/kg/injection, schedule: Q04DX003 (ip), vehicle: saline with Tween-80 104 % of control | dose: 400.0 mg/kg/injection, schedule: Q01DX009 (ip), vehicle: saline 92 % of control | dose: 400.0 mg/kg/injection, schedule: Q04DX003 (ip), vehicle: saline with Tween-80 108 % of control

ClC(Cl)(Cl)C(Cl)(Cl)c1ccc(C(Cl)(Cl)C(Cl)(Cl)Cl)cc1
inactive: dose: 100.0 mg/kg/injection, schedule: Q01DX009 (ip), vehicle: saline sonified 95 % of control | [1] 89 % of control | dose: 200.0 mg/kg/injection, schedule: Q01DX009 (ip), vehicle: saline sonified 94 % of control | dose: 200.0 mg/kg/injection, schedule: Q04DX003 (ip), vehicle: Klucel (hydroxypropylcellulose) (HPC) 94 % of control | dose: 400.0 mg/kg/injection, schedule: Q01DX009 (ip), vehicle: saline sonified 94 % of control | dose: 400.0 mg/kg/injection, schedule: Q04DX003 (ip), vehicle: Klucel (hydroxypropylcellulose) (HPC) 96 % of control

[Se]=P(C#Cc1ccccc1)(C#Cc1ccccc1)C#Cc1ccccc1
inactive: dose: 100.0 mg/kg/injection, schedule: Q01DX001 (ip), vehicle: saline with Tween-80 87 % of control | dose: 200.0 mg/kg/injection, schedule: Q01DX001 (ip), vehicle: saline with Tween-80 93 % of control | dose: 400.0 mg/kg/injection, schedule: Q01DX001 (ip), vehicle: saline with Tween-80 87 % of control

Cc1ccc2nc3nc(-c4ccccc4)c(-c4ccccc4)nc3nc2c1
inactive: dose: 75.0 mg/kg/injection, schedule: Q01DX001 (ip), vehicle: other 93 % of control | dose: 150.0 mg/kg/injection, schedule: Q01DX001 (ip), vehicle: other 94 % of control | dose: 300.0 mg/kg/injection, schedule: Q01DX001 (ip), vehicle: other 89 % of control

CC(=O)c1ccc(P(=O)(O)O)cc1
inactive: dose: 75.0 mg/kg/injection, schedule: Q01DX001 (ip), vehicle: saline 96 % of control | dose: 150.0 mg/kg/injection, schedule: Q01DX001 (ip), vehicle: saline 102 % of control | dose: 300.0 mg/kg/injection, schedule: Q01DX001 (ip), vehicle: saline 98 % of control

N#C/C(=C\C=C\c1ccccc1)C(=O)O
inactive: dose: 12.5 mg/kg/injection, schedule: Q04DX003 (ip), vehicle: Klucel (hydroxypropylcellulose) (HPC) 96 % of control | dose: 25.0 mg/kg/injection, schedule: Q04DX003 (ip), vehicle: Klucel (hydroxypropylcellulose) (HPC) 107 % of control | dose: 50.0 mg/kg/injection, schedule: Q04DX003 (ip), vehicle: Klucel (hydroxypropylcellulose) (HPC) 96 % of control | [1] 94 % of control

CC(C)(C)C1(C)OCCCO1
inactive: dose: 100.0 mg/kg/injection, schedule: Q04DX002 (ip), vehicle: saline with Tween-80 101 % of control | dose: 200.0 mg/kg/injection, schedule: Q04DX002 (ip), vehicle: saline with Tween-80 108 % of control | dose: 400.0 mg/kg/injection, schedule: Q04DX002 (ip), vehicle: saline with Tween-80 87 % of control

— PubChem BioAssay AID248 (DTP/NCI, 2004)
